Experimental data reported in US11701382B2, “Treatment of post-operative joint pain with polysulfated polysaccharides” (PARADIGM BIOPHARMACEUTICALS LTD., priority 2018, dated 2023).

Legend:
Type in all cases: in vivo, human
[1] = system: patient with persistent pain following total right knee arthroplasty; experiment: Aseptic, persistent post-operative pain in right artificial knee joint after total knee replacement, patient treated with PPS; settings: PPS 2 mg/kg SC twice weekly for 3 weeks
From the text: (§1) Example 1 is a study of the safety, tolerability and result of a patient treated with PPS suffering from degenerative osteoarthritis in the left knee with bone marrow edema lesions (BMEL), as assessed by magnetic resonance imaging (MRI), and from persistent pain following total right knee arthroplasty.
(§2) The patient had end stage osteroarthrtis (OA) in their right knee. They underwent a total knee replacement (TKR) in the right knee and had aseptic, persistent pain from that joint post replacement. They also had pain in their left knee (degenerative osteoarthritis) and was recommended to have a TKR in that joint.
(§3) They were treated with PPS. The treatment regimen consisted of administration of PPS, at a preferred dose of 2 mg/kg of body weight, twice weekly for three weeks by subcutaneous injection (total of six injections).
(§4) The protocol featured the following: • Treatment regimen: 2× weekly subcutaneous injections of PPS (preferred dose 2 mg/kg) for 3 weeks (total of 6 injections)

[2] = system: patient with degenerative osteoarthritis in the left knee; experiment: Numerical Rating Scale (NRS) pain score, left knee with degenerative osteoarthritis, patient treated with PPS; settings: left knee (degenerative OA); PPS 2 mg/kg SC twice weekly for 3 weeks (6 injections); 0-10 scale; before PPS 8
From the text: as §1, §2, §3, §4
Numerical Rating Scale (NRS) is an 11-point scale (0-10). A state of no pain is 0 and the worst pain imaginable is 10.

[3] = system: patient with degenerative osteoarthritis in the left knee; experiment: Lysholm Knee Score (knee function), left knee, patient treated with PPS; settings: left knee (degenerative OA); PPS 2 mg/kg SC twice weekly for 3 weeks; 0-100 scale; before PPS 58
From the text: as §1, §2, §3, §4
Lysholm Knee Score is a total score of 0-100 is calculated based on the results from the eight functional components of the Lysholm knee score scale: Limp (5 points), Support (5 points), Locking (15 points), Instability (25 points), Pain (25 points), Swelling (10 points), Stair climbing (10 points), and Squatting (5 points). […]

[4] = system: patient with left knee osteoarthritis and persistent right knee pain following TKR; experiment: Safety and tolerability (adverse events) of PPS under TGA SAS(B); settings: PPS 2 mg/kg SC twice weekly for 3 weeks, one patient
Procedure: as §1
The patient was treated with PPS under the TGA Special Access Scheme (B). (Approval to use PPS as treatment for the patient was acquired from Department of Health—Therapeutic Goods Administration, Australian Government under the Special Access Scheme (SAS) since the injectable form of PPS was not a registered product in Australia.)
as §3

[5] = system: patient with degenerative osteoarthritis in the left knee with bone marrow edema lesions; experiment: Bone marrow edema lesions (BMEL) assessed by MRI, left knee, patient treated with PPS
From the text: as §1, §2, §3, §4

Substance: Pentosan polysulfate [PPS]
- aseptic, persistent pain in the right artificial joint [1]: zero
- After PPS/NRS Pain [2]: 0
- After PPS/Lysholm Knee Score [3]: 99
- adverse events [4]: no adverse events were reported
- BMEL reduction as assessed by magnetic resonance imaging ([5]; PPS 2 mg/kg SC twice weekly for 3 weeks): clearly visible BMEL reduction
- bone marrow edema stage, post-treatment MRI ([5]; after PPS, at baseline up to two thirds): negligible
